Assay results reported in article PMC10313368 (The Journal of Clinical Investigation, 2023).
Several values for one entry are separate records, joined by “and”; a condition that tells them apart may be missing. Equal entries are not always repeated. Where two headings read alike, the source gives them in different places.

Experiments:
[1] = test system: hiPSC-derived 3D retinal organoids; assay: qPCR of VEGF and ANGPTL4 mRNA in D120 hiPSC-derived retinal organoids in 1% O2; format: cell-based, human; settings: for Vegfa mRNA / Angptl4 mRNA: 12 hours, 20% O2 about 1, replicates; for Vegfa mRNA: Figure 9F; for Angptl4 mRNA: Figure 9G
Experimental: An hiPSC line derived from CD34^+ cord blood was used in this study (A18945, Thermo Fisher Scientific) ([70]). Undifferentiated hiPSCs and derived retinal organoids were routinely tested for mycoplasma contamination by PCR. Cell culture, retinal differentiation, and organoid formation were conducted as previously described ([71]). Retinal organoids at D120 were used for experiments. […]
Reverse transcription and quantitative real-time PCR. Total RNA was isolated from cultured cells or retinas with PureLinkTM RNA Mini Kit (Invitrogen #12183025), and cDNA was prepared with MuLV Reverse Transcriptase (Applied Biosystems). Quantitative real-time PCR was performed with Power SYBR Green PCR Master Mix (Applied Biosystems) and MyiQ Real-Time PCR Detection System (Bio-Rad). Normalization was done using cyclophilin A for mouse tissue and human cell lines. Primers are listed in Supplemental Table 2. […]

[2] = test system: BL/6 mice; assay: Fundus photos and fluorescein angiography after systemic (i.p.) administration; format: in vivo, mouse; settings: adult mice, 1 month following 5 consecutive i.p. injections of 40 or 80 mg/kg
Experimental: protocol, the sections were rinsed three times with PBS for 2 minutes. Images were captured at high magnification (20X) with Zeiss fluorescent microscope.
Flash scotopic ERGs. All procedures were performed under dim red light. Mice were dark adapted overnight, anesthetized with ketamine (50 mg/kg) and xylazine (5mg/kg) and pupils were dilated with a topical drop of tropicamide (1%). Scotopic ERG responses were measured using the Celeris ERG stimulator (Diagnosys, Lowell, MA) at flash intensities of 0.025, 0.25, 2.5, 7.96, and 79.06 cd/s/m2. ERGs were measured simultaneously from both eyes with a ground electrode placed into the forehead between the eyes and a reference electrode into the hip.
Fluorescein angiography in mice. […]
vascular permeability, experimental animals were treated with 5 consecutive daily IP injections […]
On day 30, mice were anesthetized using intramuscular injection with ketamine (50 mg/kg) and xylazine (5mg/kg). […] Fluorescein leakage manifests as indistinct vascular borders progressing to diffusely hazy fluorescence. Fluorescein leakage was compared between different groups by quantifying the fluorescence intensities collected after 1-, 2-, and 3-minutes following fluorescein injection using the ImageJ software.

[3] = Mouse pharmacokinetics in retina after intraocular injection (LC-MS/MS); format: in vivo; settings: for AUC % Extrapolated / AUClast / Cmax / half-life / Tmax: retina; for half-life / Tmax: C57BL/6, mouse, topical or ocular; for half-life: 280 ng
Experimental: intraocular injection. Mice (at least 3 mice per time point) were euthanized at 1, 3, 7, or 14 days after injection. For the 280-ng dose, a 10-day time point was added. […]
retina by LC-MS/MS as previously described (5) with the following modifications. Retina tissue samples were homogenized in 200 μL of 1× PBS (pH 7.4) before extraction. The standard curve and quality control samples were prepared in 1× PBS as a surrogate matrix. Retina tissue samples were then quantitated in µM as: nominal concentration (µM) × initial dilution ([tissue weight (mg) + volume of solvent (μl)]/ tissue weight (mg)). For all samples <10 nM, the value was reported as below the limits of detection. If at least on samples was >10 nM and one was <10 nM, then one half that value (5 nM) was imputed to calculate the concentration for that specimen and utilized in the average and standard deviation calculations.
Pharmacokinetic parameters were calculated from mean concentration-time data using noncompartmental methods in Phoenix WinNonlin version 8.3 (Certara, Princeton, NJ, USA). The Cmax and time to Cmax (Tmax) were the observed values. The AUClast was calculated using the log-linear trapezoidal method to the last quantifiable time point. The λz was determined from at least 3 points on the slope of the terminal phase of the concentration-time profile using a 1/y2 weighting factor. The T1/2 was determined by dividing 0.693 by λz. T1/2 was not reported if the correlation coefficient (r2) for λz was less than 0.9.
Bioanalytical method for mouse pharmacokinetics. Retina tissue samples were homogenized in 200 μL of 1× PBS (pH 7.4) before extraction. The standard curve and quality control samples were prepared in 1× PBS as a surrogate matrix for all matrices. Tissue homogenate or PBS (25 μL) was […]
respectively. Dwell time was 150 milliseconds. […]
constructed from the peak area ratio of the analyte to the peak area of its internal standard (EXP-3179) using the least-squares quadratic regression analysis with 1/x2 weight over the range of 10-2,110 nM with dilutions of up to 1:10 (v/v). […]

[4] = test system: HIF transcriptional activity; settings: cell-based reporter assay; read-out: IC50, inhibition of HIF transcriptional activity; cited from earlier work

Brc1ccc2c(-c3csc(-c4c[nH]c5c(Br)cccc45)n3)c[nH]c2c1 [32-134D, 4-(6-bromo-1H-indol-3-yl)-2-(7-bromo-1H-indol-3-yl)thiazole]
expression of HIF-regulated vasoactive mediators (in words) ([1]; 1% O2 12 hours, 32-134D): effectively prevented | Vegfa mRNA ([1]; 1% O2+32-134D 1μM): 2.046 and 2.085 and 1.848 | Angptl4 mRNA ([1]; 1% O2+32-134D 1μM): 5.344 and 5.73 and 5.861 | Vegfa mRNA ([1]; 1% O2+32-134D 10μM): 0.2069 and 0.1725 and 0.1726 | Angptl4 mRNA ([1]; 1% O2+32-134D 10μM): 0.1373 and 0.1287 and 0.1338 | fundus and fluorescein angiogram [2]: normal-appearing fundus without evidence of retinal vascular injury or leakage | AUC % Extrapolated ([3]; 70 ng eyeball): 21.1% | AUClast ([3]; 70 ng eyeball): 72.3 nmol·days/g | Cmax ([3]; 70 ng eyeball): 19.1 nmol/g | AUC % Extrapolated ([3]; 280 ng eyeball): 2.2% | AUClast ([3]; 280 ng eyeball): 147 nmol·days/g | Cmax ([3]; 280 ng eyeball): 18 nmol/g | half-life ([3]; 280 ng eyeball, read-out: T1/2 (converted)): 2530 min | half-life ([3]; single 280 ng intraocular injection, read-out: t1/2 in retina (converted)): 2590 min | Tmax ([3]; 70 ng eyeball): 24 h | Tmax ([3]; 280 ng eyeball): 24 h | Cmax in neurosensory retina ([3]; single 70 ng intraocular injection): 19.1 nmol/g | AUClast in retina ([3]; single 70 ng intraocular injection, over 14 days): 72.3 nmol·days/g | Cmax in neurosensory retina ([3]; single 280 ng intraocular injection): 18 nmol/g | AUClast in retina ([3]; single 280 ng intraocular injection, through 14 days): 147 nmol·days/g | IC50 as used for time above IC50 ([3]; threshold in the pharmacokinetic calculation): 3.51 nmol/g | IC50 [4]: < 4 µM
